Test system: VEGF-induced human umbilical vein endothelial cells (HUVEC) proliferation
Experiment: VEGF-induced human umbilical vein endothelial cells (HUVEC) proliferation (SRB)
Type: cell-based
Conditions: for cell activity compared with positive control compound ABT869: VEGF-induced HUVEC proliferation
Method: 5000-8000 primary HUVEC cells before 5-15 doublings were seeded to each well of 96-well plate and each well contained 90 μl. The cells were cultured overnight and then starved with 90 μl/well serum-free basal culture medium for 24 h. Then 10 μl different concentration of compound was added to each well. Five concentrations were set and each concentration had 3 wells. After 2 h, 100 ng/mL of VEGF growth-stimulating factor was added. After 48 h, the medium was discarded, the cells were fixed with pre-cooled 10% TCA at 4° C. for 1 h, then washed with distilled water five times and dried in air. Then 100 μl of 4 mg/ml of sulforodamine B (SRB) solution prepared from 1% acetic acid was added to each well to dye 15 minutes at room temperature. The staining solution was discarded and each well was washed with 1% acetic acid five times and then dried in air. Finally, each well was added with 150 μl Tris-HCl solution (10 mM Tris, pH 10.0) and absorbance OD values at 560 nm were measured by microplate reader. Inhibition rate of the compound on HUVEC cell proliferation was measured to reflect VEGF-mediated proliferation inhibition effect of compound.
Inhibition rate of the compound was obtained by the following formula: […]
IC50 values were calculated by inhibition curves with four parameters fitting.

Row | SMILES | cell activity compared with positive control compound ABT869 | IC50 (Homo sapiens, primary HUVEC, 100 ng/mL VEGF, 48 h, SRB, read-out: Half inhibitory concentration for VEGF-induced HUVEC proliferation, IC50) [nM]
1 | Nc1n[nH]c2cccc(-c3ccc4c(C(=O)Nc5cc(F)cc(F)c5)cccc4c3)c12 [Compound I-14, 6-(3-amino-1H-indazol-4-yl)-N-(3,5-difluorophenyl)-1-naphthalenecarboxamide] | stronger than that of positive control compound ABT869 | 
2 | CCc1cccc(NC(=O)c2cccc3cc(-c4cccc5[nH]nc(N)c45)ccc23)c1 [Compound I-9, 6-(3-amino-1H-indazol-4-yl)-N-(3-ethylphenyl)-1-naphthalenecarboxamide] | stronger than that of positive control compound ABT869 | 
3 | Cc1ccc(NC(=O)c2cccc3cc(-c4cccc5[nH]nc(N)c45)ccc23)cc1 [Compound I-8, 6-(3-amino-1H-indazol-4-yl)-N-(p-methylphenyl)-1-naphthalenecarboxamide] | stronger than that of positive control compound ABT869 | 
4 | Cc1ccc(F)c(NC(=O)Nc2ccc(-c3cccc4[nH]nc(N)c34)cc2)c1 [ABT869, reference compound] |  | 2.32
5 | Cc1cc(NC(=O)c2cccc3cc(-c4cccc5[nH]nc(N)c45)ccc23)ccc1F [Compound I-21, 6-(3-amino-1H-indazol-4-yl)-N-(4-fluoro-3-methylphenyl)-1-naphthalenecarboxamide] | stronger than that of positive control compound ABT869 | 

Source: patent publication US9914707B2, “Naphthylamide compound, preparation method and use thereof” (SHANGHAI INSTITUTE OF MATERIA MEDICA, CHINESE ACADEMY OF …, priority 2014, dated 2018)
